The supplement of paper PMC10307832

How the values were obtained:
Assay in all cases: relative viability (nuclei count vs DMSO), 5 days (fraction); higher = more cells survive
Kobe2602 + Alpelisib = compound: C1=CC(=CC=C1NC(=S)NNC2=C(C=C(C=C2[N+](=O)[O-])C(F)(F)F)[N+](=O)[O-])F [Kobe2602] + Cc1nc(NC(=O)N2CCC[C@H]2C(N)=O)sc1-c1ccnc(C(C)(C)C(F)(F)F)c1 [Alpelisib] (partner 2 µM)
Method in brief: (§1)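 Relative viability divides the nuclei count in treated wells by that in vehicle wells. Lung cancer cell lines were seeded in 1536-well plates, dosed by pin tool the next day, and fixed and stained after 5 days in one step with final 0.05% Triton X-100, 1% formaldehyde and 1 ug/ml Hoechst. Dosing was a single drug or a fixed anchor-drug dose plus five library-drug doses (not always all listed) in √10 steps, and values are medians of duplicate plates imaged at 4×.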

[1] = compound: COc1cc2nccc(Oc3ccc(NC(=O)C4(C(=O)Nc5ccc(F)cc5)CC4)cc3)c2cc1OC [Cabozantinib] + CC(=O)Nc1cccc(-n2c(=O)n(C3CC3)c(=O)c3c(Nc4ccc(I)cc4F)n(C)c(=O)c(C)c32)c1 [Trametinib] (partner 0.02 µM)
Method in brief: as §1

Cabozantinib + Olaparib = compound: COc1cc2nccc(Oc3ccc(NC(=O)C4(C(=O)Nc5ccc(F)cc5)CC4)cc3)c2cc1OC [Cabozantinib] + O=C(c1cc(Cc2n[nH]c(=O)c3ccccc23)ccc1F)N1CCN(C(=O)C2CC2)CC1 [Olaparib] (partner 8 µM)
Method in brief: as §1

Zosuquidar + Lapatinib = compound: O[C@@H](COc1cccc2ncccc12)CN1CCN([C@@H]2c3ccccc3[C@@H]3[C@H](c4ccccc42)C3(F)F)CC1 [Zosuquidar] + CS(=O)(=O)CCNCc1ccc(-c2ccc3ncnc(Nc4ccc(OCc5cccc(F)c5)c(Cl)c4)c3c2)o1 [Lapatinib] (partner 2 µM)
Method in brief: as §1

Cell Line	relative viability (Kobe2602 + Alpelisib; first compound 0.2 µM)	relative viability (Kobe2602 + Alpelisib; first compound 0.6325 µM)	relative viability (Kobe2602 + Alpelisib; first compound 2 µM)	relative viability (Kobe2602 + Alpelisib; first compound 6.325 µM)	relative viability (Kobe2602 + Alpelisib; first compound 20 µM)	relative viability ([1]; first compound 0.02 µM)	relative viability ([1]; first compound 0.06325 µM)	relative viability ([1]; first compound 0.2 µM)	relative viability ([1]; first compound 0.6325 µM)	relative viability ([1]; first compound 2 µM)	relative viability (Cabozantinib + Olaparib; first compound 0.02 µM)	relative viability (Cabozantinib + Olaparib; first compound 0.06325 µM)	relative viability (Cabozantinib + Olaparib; first compound 0.2 µM)	relative viability (Cabozantinib + Olaparib; first compound 0.6325 µM)	relative viability (Cabozantinib + Olaparib; first compound 2 µM)	relative viability (Zosuquidar + Lapatinib; first compound 0.01 µM)	relative viability (Zosuquidar + Lapatinib; first compound 0.03162 µM)	relative viability (Zosuquidar + Lapatinib; first compound 0.1 µM)	relative viability (Zosuquidar + Lapatinib; first compound 0.3162 µM)	relative viability (Zosuquidar + Lapatinib; first compound 1 µM)
201T	1.09	1.01	0.968	1.11	1.09	0.71	0.731	0.686	0.729	0.727	0.909	0.893	0.832	0.842	0.832	0.996	1.05	0.881	1.02	0.997
A549	0.716	0.905	0.74	0.846	0.789						0.291	0.628	0.34	0.212	0.309	0.958	0.935	0.984	0.977	0.94
A-427	1.11	1.12	1.06	1.05	1.1	0.729	0.801	0.772	0.762	0.743	0.715	0.709	0.714	0.761	0.704	1.07	1.02	0.842	1.07	1.01
ABC-1	0.785	1.06	1.13	1.11	1.08							0.786	0.939	0.598	0.816	1.17	1.14	1.24	1.19	1.05
BEN	1.07	1.12	0.947	0.883	1.03	0.979	1.08	0.998	0.982	0.77	1.16	1.18	1.23	1.01	0.764	0.79	0.718	0.594	0.825	0.745
CAL-12T	0.92	1.39	0.67	0.981	1.19	0.331	0.357	0.33	0.371	0.365	0.728	0.859	0.73	0.716	0.743	0.716	0.84		0.768	0.819
COR-L23	0.752	0.827	0.809	0.885	0.83	0.666	0.679	0.679	0.623	0.576	0.366	0.399	0.39	0.37	0.351	0.953	0.934	0.968	1.15	1.34
COR-L 105	0.771	1.08	0.78	0.973	0.938	0.422	0.377	0.4	0.405	0.481	0.75	0.688	0.742	0.663	0.805	0.35	0.389	0.324	0.366	0.386
Calu-6	0.883	1.04	0.96	1	0.987						0.595	0.662	0.613	0.539	0.517	1.04	1.09	1.2	1.06	1.06
ChaGo-K-1						0.838	0.906	0.928	0.893	0.899	0.446	0.458	0.454	0.411	0.442					
EBC-1	0.876	0.963	0.958	0.839	0.894						0.748	0.452	0.16	0.136	0.123	0.215	0.234	0.206	0.198	0.226
EKVX	0.886	0.852	0.826	0.913	0.925	0.377	0.406	0.249	0.409	0.351	1.04	1.01	0.792	0.969	0.805	0.227	0.254	0.106	0.34	0.214
EMC-BAC-2	0.745	0.827	0.733	0.817	0.738	0.912	0.949	0.823	0.854	0.934	0.496	0.499	0.531	0.472	0.485	0.852	0.925	0.816	0.986	0.954
EPLC-272H	0.883	1.08	0.908	0.885	0.925	0.275	0.318	0.275	0.246	0.245	0.906	0.787	0.648	0.884	0.597	0.916	0.97	0.876	1.01	1
H3255	0.655	0.679	0.662	0.63	0.741	0.687	0.639		0.749	0.64	0.583	0.613		0.599	0.611	0.264	0.295	0.235	0.234	0.256
HARA	0.934	0.943	0.797	0.752	0.791	0.749	0.772		0.883	0.633	0.794	1.07		0.978	0.635	0.806	0.69	0.676	0.932	0.879
HCC-15	0.797	0.938	0.875	0.849	0.885	0.417	0.373	0.36	0.356	0.314	0.745	0.755	0.73	0.719	0.692	0.827	0.861	0.764	0.881	0.976
HCC-44	0.852	0.793	0.767	0.725	0.737	1.04	1.15	1.21	1.06	1.04	0.988	1.02	0.964	0.997	1	0.948	1.08	1.05	0.967	1.06
HCC-78	0.359	0.359		0.391	0.445		0.515	0.412	0.318	0.321		0.886	0.753	0.443	0.405	0.866	1.03		0.893	0.572

Cell Line	relative viability (Kobe2602 + Alpelisib; first compound 0.2 µM)	relative viability (Kobe2602 + Alpelisib; first compound 0.6325 µM)	relative viability (Kobe2602 + Alpelisib; first compound 2 µM)	relative viability (Kobe2602 + Alpelisib; first compound 6.325 µM)	relative viability (Kobe2602 + Alpelisib; first compound 20 µM)	relative viability ([1]; first compound 0.02 µM)	relative viability ([1]; first compound 0.06325 µM)	relative viability ([1]; first compound 0.2 µM)	relative viability ([1]; first compound 0.6325 µM)	relative viability ([1]; first compound 2 µM)	relative viability (Cabozantinib + Olaparib; first compound 0.02 µM)	relative viability (Cabozantinib + Olaparib; first compound 0.06325 µM)	relative viability (Cabozantinib + Olaparib; first compound 0.2 µM)	relative viability (Cabozantinib + Olaparib; first compound 0.6325 µM)	relative viability (Cabozantinib + Olaparib; first compound 2 µM)	relative viability (Zosuquidar + Lapatinib; first compound 0.01 µM)	relative viability (Zosuquidar + Lapatinib; first compound 0.03162 µM)	relative viability (Zosuquidar + Lapatinib; first compound 0.1 µM)	relative viability (Zosuquidar + Lapatinib; first compound 0.3162 µM)	relative viability (Zosuquidar + Lapatinib; first compound 1 µM)
HCC-366	0.364	0.493	0.309	0.429	0.496	0.409	0.334	0.35	0.285	0.272	0.597	0.464	0.395	0.4	0.335	1.08	1.08	1.15	1.01	1.15
HCC-827	0.951	0.875	0.951	0.936	1.07	0.529	0.586		0.504	0.476	0.643	0.786		0.624	0.562	0.183	0.246	0.178	0.19	0.246
HOP-62	1.05	0.846	0.934	0.809	1.25	0.413	0.389	0.4	0.376	0.349	0.435	0.406	0.608	0.602	0.575	0.862	1.05	0.951	1.07	1.07
IA-LM		0.778	0.602	0.683	0.751						0.817	0.849	0.801	1.06	0.925		0.713	0.802	1.01	0.881
LC-2-ad	0.846	0.866	0.916	0.883	1.01	0.924	0.948	0.92	0.761	0.48	0.754	0.735	0.847	0.829	0.691	0.994	1.05	0.993	0.989	0.958
LCLC-97TM1	0.26	0.26	0.228	0.202	0.262	0.197	0.236	0.214	0.212	0.19	0.483	0.492	0.332	0.342	0.407	1.07	1.13		1.27	0.881
LCLC-103H	0.897	0.944	0.961	1.02	0.985	0.716	0.709	0.678	0.68	0.667	0.77	0.796	0.779	0.79	0.729					
LK-2	1.04	1.2	1.26	1.07	1.04	0.678	0.836	0.717	0.863	0.781	0.57	0.791	0.815	0.697	0.667	0.985	0.892	0.923	1.18	0.946
LOU-NH91	0.767	0.752	0.701	0.722	0.778	0.778	0.866	0.692	0.785	0.748	0.96	0.984	0.681	0.903	0.925	0.717	0.851	0.701	0.942	0.751
LU99A	0.515	0.525	0.415	0.542	0.607	0.475	0.56	0.535	0.573	0.41	0.304	0.258	0.283	0.281	0.261	0.918	0.954	1.11	1.05	0.982
NCI-H441	0.725	0.864	0.682	0.704	0.727	0.339	0.502	0.421	0.441	0.361	0.787	0.664	0.615	0.59	0.703					
NCI-H522						0.823	0.819	0.78	0.861	0.69	0.714	0.667	0.584	0.625	0.648					
NCI-H1299	1.02	1.05	1.08	1.13	1.05						0.969	0.988	0.964	0.971	1.09	0.971	0.981	0.944	1.01	0.958
NCI-H1563	0.939	0.917	0.871	0.839	1.08											0.99	0.81	0.813	1.04	0.855
NCI-H1648						0.501	0.448		0.672	0.419	1.17	0.995		1.02	0.651					
NCI-H1650						0.656	0.615	0.391	0.643	0.691	0.831	0.958	0.713	0.753	0.809	0.783	0.696	0.684	1.22	0.875
NCI-H1703	0.313	0.347	0.333	0.392	0.306						0.398	0.232	0.224	0.215	0.149	1.17	1.27	0.96	1.45	1.16
NCI-H2342						0.872	0.949	0.878	0.738	0.535	0.436	0.454	0.746	0.495	0.379					
SW 900						0.978	0.841	0.611	0.955	0.852	0.877	0.941	0.664	0.636	0.684					
